Where a SMILES comes first, the peptide text is derived from it. [ ]: non-standard residue; d: D form.
Experiments:
purified porcine DPP-4 = purified porcine DPP-4 (Sus scrofa, UniProt P22411); assay: DPP-4 degradation / in vitro DPP-4 half-life; conditions: 20 μg peptide, 5 mU purified DPP-4, up to 12 h, HPLC
Experimental: Peptide (20 μg) DPP-4 degradation profiles (5 μl purified DPP-4, 5 mU; Sigma-Aldrich, UK) were assessed as described previously.
For calculation of experimental molecular masses, peptide samples (1 µg) were mixed with α-cyano-4-hydroxycinnamic acid (1 µg) and applied to a Voyager-DE BioSpectrometry Workstation and mass-to-charge (m/z) ratio verses peak intensity recorded by MALDI-TOF mass spectrometry. DPP-4 half-life was assessed by incubating peptides (37°C in 50 mmol/L TEA-HCl; pH 7.8) with 5 mU purified porcine DPP-4 for 0, 1, 2, 4, 8 and 12 h. Degradation profiles were obtained using rp-HPLC analysis and HPLC peak area data used to calculate percentage intact peptide remaining at each time point.

lean control mice [1] = assay: Persistent glucose-lowering and insulin-releasing effects, peptide 4 h before glucose load; format: in vivo, mouse; conditions: 25 nmol/kg injected 4 h before i.p. glucose load 18 mmol/kg, non-fasted lean mice, vs saline
Experimental: (§1) Specific information on acute feeding, glucose homeostasis and insulin-secretory studies is given in ESM Methods. To assess the impact of GIP and neurotensin receptor activation on (DAla^2)GIP/xenin-8-Gln-induced glucose-lowering and insulin-secretory actions in mice, (DAla^2)GIP/xenin-8-Gln was administered by i.p. injection (25 nmol/kg body weight) in combination with glucose (18 mmol/kg) in the absence and presence of GIP(6-30)Cex-K^40[Pal] and SR142948A (both at 25 nmol/kg), and glucose and insulin were measured as described above. In a final series of experiments, test peptides (25 nmol/kg) or saline vehicle (0.9% wt/vol. NaCl) were injected 4 h before a glucose load (18 mmol/kg) in non-fasted mice and blood glucose and plasma insulin measured as above.

BRIN-BD11 cells [2] = assay: In vitro insulin secretion from BRIN-BD11 cells; format: cell-based, rat; conditions: peptide 10^−6 mol/l, antagonist 10^−6 mol/l, 5.6 mmol/l glucose, 20 min
Experimental: (§2) BRIN-BD11 cells were used to assess the insulin-releasing activity of test peptides, as described previously. This hybrid cell line (ECACC 10033003) was originally generated in-house by electrofusion of a primary culture of New England Deaconess Hospital (NEDH) rat pancreatic islets with RINm5F (a cell line derived from an NEDH rat insulinoma), and has been mycoplasma eradicated. For details of experimental conditions please see ESM Methods. Insulin was measured by radioimmunoassay. We assessed the impact of GIP and neurotensin receptors on (DAla^2)GIP/xenin-8-Gln-induced insulin secretion in BRIN-BD11 cells. Cells were incubated in 5.6 mmol/l glucose with (DAla^2)GIP/xenin-8-Gln (10^−6 mol/l) alone or in combination with the GIP receptor antagonist GIP(6-30)Cex-K^40[Pal] [32] (where Pal is palmitate) or the neurotensin receptor antagonist SR142948A (Sigma, Poole, UK), and insulin secretion determined as described above. In addition, to determine mechanisms, intracellular Ca^2+ was also measured in BRIN-BD11 cells following treatment with test peptides (10^−6 mol/l), using a Flexstation scanning fluorometer (FLIPR Calcium 5 assay kit; Molecular Devices, Sunnyvale, CA, USA), as described previously.
In vitro insulin release studies Cells were seeded at a density of 150,000 cells/well in 24-well plates (Nunc, Roskilde, Denmark) and allowed to attach overnight at 37 °C. Culture medium was removed and cells were pre-incubated in Krebs–Ringer bicarbonate buffer (containing 0.5% (w/v) BSA, pH 7.4) supplemented with 1.1 mmol/l glucose for 40 min at 37 °C. Following the pre-incubation, experiments (n=8) were performed in presence of glucose (5.6 or 16.7 mmol/l) with a […]
incubations, aliquots of assay buffer were collected from each well and stored at -20 °C prior to […]
(§3) Acute in vivo effects in lean mice For food intake studies, fasted (18 h) mice were given intraperitoneal (i.p) injections of peptides at a dose of 25, 100 or 250 nmol/kg bw. Mice were then allowed free access to normal chow for 180 mins and cumulative food intake measured. […]

lean control mice [3] = assay: Acute glucose-lowering and insulin-releasing effects in lean mice; format: in vivo, mouse; conditions: 25 nmol/kg i.p. with glucose 18 mmol/kg, non-fasted lean mice, vs glucose alone
Experimental: as §1, with “as above. […]” for “as above.”
(§4) Animals Acute animal studies were conducted in male NIH Swiss mice (12-14 weeks old, Harlan Ltd, UK) maintained on a standard rodent maintenance diet (10% fat, 30% protein and 60% carbohydrate, Trouw Nutrition, UK). Prior to commencement of longer term studies, all animals, except lean controls that continued on rodent maintenance diet, were maintained on a high-fat diet (45% fat, 35% carbohydrate and 20% protein, Special Diet Services, UK) for 12 weeks. This diet […]
(§5) individually in an air-conditioned room at 22 ± 2 °C with a 12 h light:12 h dark cycle and had free access to food and water. Animal experiments were carried out in accordance with the UK Animals (Scientific Procedures) Act 1986.
as §3, with “measured. For glucose homeostasis and” for “measured.”

lean control mice [4] = assay: Acute cumulative food intake in lean mice; format: in vivo, mouse; conditions: 250 nmol/kg i.p., 18 h fasted lean mice, 120 min post injection, vs saline
Experimental: as §4, §5
as §3, with “measured. For glucose homeostasis and” for “measured.”

BRIN-BD11 cells [5] = assay: Intracellular Ca2+ in BRIN-BD11 cells (FLIPR Calcium 5); format: cell-based, rat; conditions: peptide 10^−6 mol/l, 5.6 mmol/l glucose, 5 min, AUC 0–300 s
Experimental: as §2

purified porcine DPP-4, sequence (P22411 whole entry): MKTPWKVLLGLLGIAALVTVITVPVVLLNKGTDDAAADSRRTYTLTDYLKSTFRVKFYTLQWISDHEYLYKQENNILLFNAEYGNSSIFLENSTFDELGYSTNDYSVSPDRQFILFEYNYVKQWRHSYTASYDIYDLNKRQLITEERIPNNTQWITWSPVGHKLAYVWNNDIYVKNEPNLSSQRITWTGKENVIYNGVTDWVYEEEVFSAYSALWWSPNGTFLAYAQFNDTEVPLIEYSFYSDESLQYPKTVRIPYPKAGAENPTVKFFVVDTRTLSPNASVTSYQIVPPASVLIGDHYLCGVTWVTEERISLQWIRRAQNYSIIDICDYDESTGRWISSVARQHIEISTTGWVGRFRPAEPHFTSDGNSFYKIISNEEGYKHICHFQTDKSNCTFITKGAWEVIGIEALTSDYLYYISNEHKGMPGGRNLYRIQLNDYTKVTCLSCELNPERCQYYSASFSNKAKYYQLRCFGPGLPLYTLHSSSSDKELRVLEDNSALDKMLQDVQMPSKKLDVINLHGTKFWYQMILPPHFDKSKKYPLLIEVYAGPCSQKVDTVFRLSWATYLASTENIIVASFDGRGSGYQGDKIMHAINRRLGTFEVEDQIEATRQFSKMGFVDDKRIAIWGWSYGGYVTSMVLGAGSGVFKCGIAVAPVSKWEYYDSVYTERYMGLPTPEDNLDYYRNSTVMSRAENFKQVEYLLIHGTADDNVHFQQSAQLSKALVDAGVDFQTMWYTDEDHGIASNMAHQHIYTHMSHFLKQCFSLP

For `CC[C@H](C)[C@H](NC(=O)[C@H](CO)NC(=O)[C@H](Cc1ccc(O)cc1)NC(=O)[C@H](CC(=O)O)NC(=O)[C@H](CO)NC(=O)[C@@H](NC(=O)[C@H](Cc1ccccc1)NC(=O)[C@@H](NC(=O)CNC(=O)[C@H](CCC(=O)O)NC(=O)[C@@H](C)NC(=O)[C@@H](N)Cc1ccc(O)cc1)[C@@H](C)O)[C@@H](C)CC)C(=O)N[C@@H](C)C(=O)N[C@@H](CCSC)C(=O)N[C@@H](Cc1c[nH]cn1)C(=O)N1CCC[C@H]1C(=O)N[C@@H](CCC(N)=O)C(=O)N[C@@H](CCC(N)=O)C(=O)N1CCC[C@H]1C(=O)N[C@@H](Cc1c[nH]c2ccccc12)C(=O)N[C@H](C(=O)N[C@@H](CC(C)C)C(=O)O)[C@@H](C)CC` [(DAla^2)GIP/xenin-8-Gln] (H-Y[dA]EGTFISDYSIAMHPQQPWIL-OH), the “Stability when incubated in the presence of DPP-4” value (purified porcine DPP-4) was “remained fully intact”.

With `CC[C@H](C)[C@H](NC(=O)[C@H](Cc1c[nH]c2ccccc12)NC(=O)[C@@H]1CCCN1C(=O)[C@H](CCC(N)=O)NC(=O)[C@H](CCC(N)=O)NC(=O)[C@@H]1CCCN1C(=O)[C@@H](N)Cc1c[nH]cn1)C(=O)N[C@@H](CC(C)C)C(=O)O` [xenin-8-Gln] (H-HPQQPWIL-OH) the “Overall AUC for blood glucose after glucose challenge” value (lean control mice [1]) was “devoid of glucose-lowering or insulin-releasing effects”, the “Plasma insulin AUC after glucose challenge” value (lean control mice [1]) was “devoid of glucose-lowering or insulin-releasing effects” and the “Peptide-mediated insulin secretion in presence of neurotensin receptor antagonist SR142948A” value (BRIN-BD11 cells [2]) was “similar, but less prominent, effect”. For the same compound, the Blood glucose (lean control mice [3]; 30 min post injection) was “significantly (p < 0.05) lowered blood glucose values”, the “Overall AUC blood glucose” value (lean control mice [3]) was “significantly (p < 0.05) decreased overall AUC blood glucose values” and the Cumulative food intake (lean control mice [4]) was “significant (p < 0.05) reductions in food intake”. For the same compound, the “Effect on intracellular Ca^2+ concentrations” value (BRIN-BD11 cells [5]) was “Neither, (DAla^2)GIP, xenin-8-Gln nor (DAla^2)GIP/xenin-8-Gln had any effect”.

Reference: paper PMC6518372, “An enzymatically stable GIP/xenin hybrid peptide restores GIP sensitivity, enhances beta cell function and improves glucose homeostasis in high-fat-fed mice” (Diabetologia, 2016)
